Test results: article PMC2748117 (Journal of medicinal chemistry, 2008)

Legend:
KB cells [1] = assay: Apoptosis assay, Annexin V-FITC flow cytometry; format: cell-based, human; conditions: 1 µM, 24 h, Annexin V positive cells
KB cells [2] = assay: Growth inhibition of KB tumor cells, with folate/nucleoside/AICA protection; format: cell-based, human
human TS = conditions: ref [22], [23]; cited from earlier work
CCRF-CEM leukemia cell = conditions: supraphysiologic folate; protected by hypoxanthine, not thymidine; ref [22], [23]; cited from earlier work
[3] = test system: human folylpolyglutamate synthetase; conditions: ref [23]; cited from earlier work
human DHFR = conditions: ref [22], [23]; cited from earlier work
KB cells [4] = assay: Colony formation and reversibility assay with KB cells; conditions: 0.1 to 100 nM drug, 10 days
human RFC = assay: Inhibition of RFC-mediated [3H]MTX uptake in PC43-10 cells; format: cell-based; conditions: unlabeled compound 10 µM, 0.5 µM [3H]MTX, 2 min, 37°C

SMILES	Apoptosis level relative to the antifolate drugs (KB cells [1]) [factor]	Increase of IC50 between 2 nM and 20 nM LCV (KB cells [2]; KB cells, folate-free media, 20 nM versus 2 nM leucovorin)	Increase of IC50 at 40 nM LCV (KB cells [2]; KB cells, folate-free media, 40 nM versus 2 nM leucovorin) [fold]	Inhibition of purified human TS (human TS)	Inhibition of CCRF-CEM leukemia cell growth (CCRF-CEM leukemia cell)	Substrate activity for polyglutamylation [3]	Inhibition of purified human DHFR (human DHFR)	Inhibition of colony formation, continuous exposure (KB cells [4])	Effect of thymidine on growth inhibitory activity toward KB cells (KB cells [2]; 10 µM thymidine)	Effect of adenosine on growth inhibition of KB cells (KB cells [2]; 60 µM adenosine)	Protection by AICA from growth inhibitory effects in KB cells (KB cells [2]; 192 µM AICA)	Inhibition of [3H]MTX uptake (human RFC) [%]
COc1cccc2c1C(=O)c1c(O)c3c(c(O)c1C2=O)C[C@@](O)(C(C)=O)C[C@@H]3O[C@H]1C[C@H](N)[C@H](O)[C@H](C)O1 [daunorubicin]	4	–	–	–	–	–	–	–	–	–	–	–
Nc1nc2[nH]c(CCCCc3ccc(C(=O)N[C@@H](CCC(=O)O)C(=O)O)cc3)cc2c(=O)[nH]1 [Compound 3, N-{4-[4-(2-Amino-4-oxo-4,7-dihydro-3H-pyrrolo[2,3-d]pyrimidin-6-yl)butyl]benzoyl}-L-glutamic Acid]	–	approximately 3 fold	~6	poor inhibitors	modest inhibitors	excellent substrates	poor inhibitors	more potent inhibitors than either compound 4 or MTX	–	–	–	–
Nc1nc2[nH]c(CCCc3ccc(C(=O)N[C@@H](CCC(=O)O)C(=O)O)cc3)cc2c(=O)[nH]1 [Compound 2]	–	–	–	poor inhibitors	modest inhibitors	excellent substrates	poor inhibitors	more potent inhibitors than either compound 4 or MTX	no effect	completely reversed	completely protected	–
Nc1nc(=O)c2nc(CNc3ccc(C(=O)N[C@@H](CCC(=O)O)C(=O)O)cc3)cnc2[nH]1 [folic acid]	–	–	–	–	–	–	–	–	–	–	–	< 20
